Results published in PubChem BioAssay (NCI).
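Grown in 96-well plates, cells were treated for 48 hours with each compound at five concentrations. Insufficient inhibition: endpoint recorded as highest concentration tested. Abbreviation: GI50, concentration required for 50% inhibition of growth. TGI is the concentration that stops growth completely.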

What was measured:
Assay in all cases: inhibition of tumour cell growth, NCI panel, 48 h
HOP-62 NSCLC = test system: HOP-62 NSCLC
NCI-H522 lung = test system: NCI-H522 lung
U251 CNS = test system: U251 CNS
MDA-MB-231 breast = test system: MDA-MB-231 breast
OVCAR-8 ovarian = test system: OVCAR-8 ovarian
RXF 393 renal = test system: RXF 393 renal
SN12C renal = test system: SN12C renal
KM12 colon = test system: KM12 colon
SF-295 CNS = test system: SF-295 CNS
SR leukemia = test system: SR leukemia
MALME-3M melanoma = test system: MALME-3M melanoma
M14 melanoma = test system: M14 melanoma
RPMI-8226 leukemia = test system: RPMI-8226 leukemia
DU-145 prostate = test system: DU-145 prostate
T-47D breast = test system: T-47D breast
HT29 colon = test system: HT29 colon
NCI-H23 lung = test system: NCI-H23 lung
HCT-15 colon = test system: HCT-15 colon
OVCAR-4 ovarian = test system: OVCAR-4 ovarian
BT-549 breast = test system: BT-549 breast
SK-OV-3 ovarian = test system: SK-OV-3 ovarian
UACC-62 melanoma = test system: UACC-62 melanoma
SW-620 colon = test system: SW-620 colon
NCI-H226 lung = test system: NCI-H226 lung
SNB-19 CNS = test system: SNB-19 CNS
UACC-257 melanoma = test system: UACC-257 melanoma
OVCAR-3 ovarian = test system: OVCAR-3 ovarian
SK-MEL-28 melanoma = test system: SK-MEL-28 melanoma
OVCAR-5 ovarian = test system: OVCAR-5 ovarian
HS 578T breast = test system: HS 578T breast
NCI-H460 lung = test system: NCI-H460 lung
SF-268 CNS = test system: SF-268 CNS
HCT-116 colon = test system: HCT-116 colon
SNB-75 CNS = test system: SNB-75 CNS
UO-31 renal = test system: UO-31 renal
SK-MEL-5 melanoma = test system: SK-MEL-5 melanoma
786-0 renal = test system: 786-0 renal
HL-60(TB) leukemia = test system: HL-60(TB) leukemia
SF-539 CNS = test system: SF-539 CNS
IGROV1 ovarian = test system: IGROV1 ovarian
CCRF-CEM leukemia = test system: CCRF-CEM leukemia
TK-10 renal = test system: TK-10 renal
K-562 leukemia = test system: K-562 leukemia
A549 NSCLC = test system: A549 NSCLC
MDA-MB-435 = test system: MDA-MB-435
EKVX NSCLC = test system: EKVX NSCLC
COLO 205 colon = test system: COLO 205 colon
CAKI-1 renal = test system: CAKI-1 renal
ACHN renal = test system: ACHN renal
PC-3 prostate = test system: PC-3 prostate
MOLT-4 leukemia = test system: MOLT-4 leukemia
HCC-2998 colon = test system: HCC-2998 colon
SK-MEL-2 melanoma = test system: SK-MEL-2 melanoma
HOP-92 NSCLC = test system: HOP-92 NSCLC
A498 renal = test system: A498 renal
MCF7 breast = test system: MCF7 breast
NCI/ADR-RES ovarian = test system: NCI/ADR-RES ovarian
LOX IMVI melanoma = test system: LOX IMVI melanoma

`CCN(CC)Cc1cc(Nc2c3ccccc3nc3c4ccccc4n(C)c23)cc(CN(CC)CC)c1O` showed a TGI (HOP-62 NSCLC) of 20.4 µM, a TGI (NCI-H522 lung) of 4.77 µM and a TGI (U251 CNS) of 20.1 µM. It also gave a TGI (MDA-MB-231 breast) of 13.4 µM, a TGI (OVCAR-8 ovarian) of 20.8 µM and a TGI (RXF 393 renal) of 10.1 µM. The TGI (SN12C renal) was 20.4 µM, the TGI (KM12 colon) was 20.7 µM and the TGI (SF-295 CNS) was 17.6 µM. The TGI (SR leukemia) was 10.7 µM, the TGI (MALME-3M melanoma) was 5.25 µM and the TGI (M14 melanoma) was 3.37 µM. For the same compound, the TGI (RPMI-8226 leukemia) was greater than 100 µM, the TGI (DU-145 prostate) was 23.3 µM and the TGI (T-47D breast) was 15.7 µM. The TGI (HT29 colon) was 11.8 µM, the TGI (NCI-H23 lung) was 27 µM and the TGI (HCT-15 colon) was 14.4 µM. For the same compound, the TGI (OVCAR-4 ovarian) was 18 µM, the TGI (BT-549 breast) was 11.1 µM and the TGI (SK-OV-3 ovarian) was 32.5 µM. For the same compound, the TGI (UACC-62 melanoma) was 10.4 µM, the TGI (SW-620 colon) was 13.3 µM and the TGI (NCI-H226 lung) was 18.4 µM. The TGI (SNB-19 CNS) was 27.4 µM, the TGI (UACC-257 melanoma) was 7.07 µM and the TGI (OVCAR-3 ovarian) was 11.2 µM. It also gave a TGI (SK-MEL-28 melanoma) of 6.34 µM, a TGI (OVCAR-5 ovarian) of 22.1 µM and a TGI (HS 578T breast) of 26.6 µM. It also gave a TGI (NCI-H460 lung) of 16 µM, a TGI (SF-268 CNS) of 28.8 µM and a TGI (HCT-116 colon) of 11 µM. For the same compound, the TGI (SNB-75 CNS) was 25.2 µM, the TGI (UO-31 renal) was 6.68 µM and the TGI (SK-MEL-5 melanoma) was 3.72 µM. It also gave a TGI (786-0 renal) of 14.9 µM, a TGI (HL-60(TB) leukemia) of 12.2 µM and a TGI (SF-539 CNS) of 15.2 µM. It also gave a TGI (IGROV1 ovarian) of 24.6 µM, a TGI (CCRF-CEM leukemia) of 14.2 µM and a TGI (TK-10 renal) of 28.1 µM. For the same compound, the TGI (K-562 leukemia) was greater than 35 µM, the TGI (A549 NSCLC) was 31.9 µM and the TGI (MDA-MB-435) was 10.2 µM. It also gave a TGI (EKVX NSCLC) of 21.4 µM, a TGI (COLO 205 colon) of 10.8 µM and a TGI (CAKI-1 renal) of 29.2 µM. It also gave a TGI (ACHN renal) of 13.8 µM, a TGI (PC-3 prostate) of 11.8 µM and a TGI (MOLT-4 leukemia) greater than 33.3 µM. For the same compound, the TGI (HCC-2998 colon) was 19.2 µM, the TGI (SK-MEL-2 melanoma) was 7.6 µM and the TGI (HOP-92 NSCLC) was 17.2 µM. The TGI (A498 renal) was 18.4 µM, the TGI (MCF7 breast) was 19.3 µM and the TGI (NCI/ADR-RES ovarian) was 8.89 µM.
With `CCN1CCN(c2cc(C)nc(N(CCNc3ccnc4cc(Cl)ccc34)Cc3ccc4c(c3)OCO4)n2)CC1` the GI50 (HOP-62 NSCLC) was 1.94 µM, the TGI (HOP-62 NSCLC) was 5.21 µM and the GI50 (NCI-H522 lung) was 1.58 µM. For the same compound, the TGI (NCI-H522 lung) was 3.18 µM, the GI50 (U251 CNS) was 1.49 µM and the TGI (U251 CNS) was 3.16 µM. The GI50 (MDA-MB-231 breast) was 1.37 µM, the TGI (MDA-MB-231 breast) was 3 µM and the GI50 (OVCAR-8 ovarian) was 1.64 µM. The TGI (OVCAR-8 ovarian) was 3.36 µM, the GI50 (RXF 393 renal) was 0.688 µM and the TGI (RXF 393 renal) was 2.12 µM. The GI50 (SN12C renal) was 1.83 µM, the TGI (SN12C renal) was 3.71 µM and the GI50 (KM12 colon) was 1.8 µM. It also gave a TGI (KM12 colon) of 5.97 µM, a GI50 (SF-295 CNS) of 1.45 µM and a TGI (SF-295 CNS) of 2.98 µM. It also gave a GI50 (SR leukemia) of 0.189 µM, a TGI (SR leukemia) of 0.544 µM and a GI50 (MALME-3M melanoma) of 1.67 µM. The TGI (MALME-3M melanoma) was 3.37 µM, the GI50 (M14 melanoma) was 1.49 µM and the TGI (M14 melanoma) was 2.95 µM. The GI50 (RPMI-8226 leukemia) was 1.2 µM, the TGI (RPMI-8226 leukemia) was 3.37 µM and the GI50 (DU-145 prostate) was 2.23 µM. The TGI (DU-145 prostate) was 7.25 µM, the GI50 (LOX IMVI melanoma) was 1.5 µM and the TGI (LOX IMVI melanoma) was 2.89 µM. It also gave a GI50 (T-47D breast) of 1.99 µM, a TGI (T-47D breast) of 4.96 µM and a GI50 (HT29 colon) of 1.16 µM. For the same compound, the TGI (HT29 colon) was 3.71 µM, the GI50 (NCI-H23 lung) was 1.88 µM and the TGI (NCI-H23 lung) was 5.01 µM. It also gave a GI50 (HCT-15 colon) of 0.875 µM, a TGI (HCT-15 colon) of 2.69 µM and a GI50 (OVCAR-4 ovarian) of 1.93 µM. The TGI (OVCAR-4 ovarian) was 6.18 µM, the GI50 (BT-549 breast) was 1.54 µM and the TGI (BT-549 breast) was 3.13 µM. For the same compound, the GI50 (SK-OV-3 ovarian) was 2.12 µM, the TGI (SK-OV-3 ovarian) was 5.34 µM and the GI50 (UACC-62 melanoma) was 1.83 µM. The TGI (UACC-62 melanoma) was 3.63 µM, the GI50 (SW-620 colon) was 1.58 µM and the TGI (SW-620 colon) was 3.45 µM. For the same compound, the GI50 (NCI-H226 lung) was 2.43 µM, the TGI (NCI-H226 lung) was 7.05 µM and the GI50 (SNB-19 CNS) was 2.67 µM. The TGI (SNB-19 CNS) was 8.49 µM, the GI50 (UACC-257 melanoma) was 2.05 µM and the TGI (UACC-257 melanoma) was 3.88 µM. The GI50 (OVCAR-3 ovarian) was 1.2 µM, the TGI (OVCAR-3 ovarian) was 2.64 µM and the GI50 (SK-MEL-28 melanoma) was 1.72 µM. The TGI (SK-MEL-28 melanoma) was 3.5 µM, the GI50 (OVCAR-5 ovarian) was 2.53 µM and the TGI (OVCAR-5 ovarian) was 6.51 µM. For the same compound, the GI50 (HS 578T breast) was 1.79 µM, the TGI (HS 578T breast) was 4.15 µM and the GI50 (NCI-H460 lung) was 1.77 µM. The TGI (NCI-H460 lung) was 3.61 µM, the GI50 (SF-268 CNS) was 1.8 µM and the TGI (SF-268 CNS) was 3.72 µM. For the same compound, the GI50 (HCT-116 colon) was 1.03 µM, the TGI (HCT-116 colon) was 2.39 µM and the GI50 (SNB-75 CNS) was 1.33 µM. It also gave a TGI (SNB-75 CNS) of 2.72 µM, a GI50 (UO-31 renal) of 1.36 µM and a TGI (UO-31 renal) of 3.3 µM. The GI50 (SK-MEL-5 melanoma) was 1.56 µM, the TGI (SK-MEL-5 melanoma) was 2.93 µM and the GI50 (786-0 renal) was 1.49 µM. The TGI (786-0 renal) was 2.9 µM, the GI50 (HL-60(TB) leukemia) was 1.9 µM and the TGI (HL-60(TB) leukemia) was 3.84 µM. The GI50 (SF-539 CNS) was 1.52 µM, the TGI (SF-539 CNS) was 3.12 µM and the GI50 (IGROV1 ovarian) was 1.48 µM. It also gave a TGI (IGROV1 ovarian) of 3.92 µM, a GI50 (CCRF-CEM leukemia) of 0.728 µM and a TGI (CCRF-CEM leukemia) of 4.69 µM. It also gave a GI50 (K-562 leukemia) of 0.355 µM, a TGI (K-562 leukemia) of 1.7 µM and a GI50 (A549 NSCLC) of 2.13 µM. It also gave a TGI (A549 NSCLC) of 4.93 µM, a GI50 (MDA-MB-435) of 1.48 µM and a TGI (MDA-MB-435) of 2.9 µM. The GI50 (EKVX NSCLC) was 2.33 µM, the TGI (EKVX NSCLC) was 7.91 µM and the GI50 (COLO 205 colon) was 1.51 µM. For the same compound, the TGI (COLO 205 colon) was 3.26 µM, the GI50 (ACHN renal) was 1.86 µM and the TGI (ACHN renal) was 4.39 µM. The GI50 (PC-3 prostate) was 1.98 µM, the TGI (PC-3 prostate) was 7 µM and the GI50 (MOLT-4 leukemia) was 0.728 µM. For the same compound, the TGI (MOLT-4 leukemia) was 3.1 µM, the GI50 (HCC-2998 colon) was 2.09 µM and the TGI (HCC-2998 colon) was 4.22 µM. It also gave a GI50 (SK-MEL-2 melanoma) of 1.63 µM, a TGI (SK-MEL-2 melanoma) of 3.15 µM and a GI50 (HOP-92 NSCLC) of 1.21 µM. The TGI (HOP-92 NSCLC) was 3.71 µM, the GI50 (A498 renal) was 1.5 µM and the TGI (A498 renal) was 3.3 µM. The GI50 (MCF7 breast) was 1.19 µM, the TGI (MCF7 breast) was 2.83 µM and the GI50 (NCI/ADR-RES ovarian) was 1.6 µM. The TGI (NCI/ADR-RES ovarian) was 3.51 µM.
